Results published in ChEMBL document CHEMBL4321792, “Discovery of 4-Methylquinazoline Based PI3K Inhibitors for the Potential Treatment of Idiopathic Pulmonary Fibrosis” (J Med Chem, 2019).
Active and inactive are the calls of the source. No cut-off for these calls is given here.

Assays:
[1] = Clearance in ICR mouse at 0.5 mg/kg, iv by LC-MS/SM analysis; assay type: ADME, organism-based; settings: in vivo
Mus musculus [2] = experiment: Antifibrotic activity in bleomycin-induced C57BL/6 mouse model of pulmonary fibrosis assessed as reduction in lung alpha-SMA level at 1 mg/kg, po administered once daily for 18 days starting from 10 days post-bleomycin challenge and measured post last dose by immunostaining-based histopathological analysis; assay type: functional, organism-based
[3] = molecular target: Phosphatidylinositol 4-phosphate 3-kinase C2 domain-containing subunit beta (Homo sapiens) (UniProt O00750); experiment: Binding affinity to wild-type human partial length PIK3C2B (M1 to L1634 residues) expressed in mammalian expression system assessed as residual binding level at 1 uM by kinomescan assay relative to control
[4] = Apparent permeability across basolateral to apical side in human Caco2 cells measured after 90 mins by LC-MS/MS analysis; settings: Caco-2
[5] = Antifibrotic activity against mouse Mlg2908 cells assessed as reduction in cell viability measured after 72 hrs by MTT assay; assay type: functional, cell-based
Mus musculus [6] = experiment: Antifibrotic activity in bleomycin-induced C57BL/6 mouse model of pulmonary fibrosis assessed as reduction in respiratory system elastance at 1 mg/kg, po administered once daily for 18 days starting from 10 days post-bleomycin challenge and measured post last dose; assay type: functional, organism-based
[7] = molecular target: T1, Phosphatidylinositol 4,5-bisphosphate 3-kinase catalytic subunit gamma isoform (Homo sapiens, UniProt P48736); experiment: Binding affinity to wild-type human partial length PIK3CG (S144 to A1102 residues) expressed in mammalian expression system assessed as residual binding level at 1 uM by kinomescan assay relative to control
[8] = Half life in ICR mouse at 5 mg/kg, po by LC-MS/SM analysis; assay type: ADME, organism-based; settings: in vivo
[9] = molecular target: PI3-kinase p110-alpha/p85-alpha (Homo sapiens, UniProt P42336); experiment: Inhibition of recombinant human N-terminal FLAG-tagged full-length p110alpha/human p85alpha expressed in Sf9 insect cells using PIP2 as substrate by kinase-glo assay
Sequence of PI3-kinase p110-alpha/p85-alpha (P27986 whole entry): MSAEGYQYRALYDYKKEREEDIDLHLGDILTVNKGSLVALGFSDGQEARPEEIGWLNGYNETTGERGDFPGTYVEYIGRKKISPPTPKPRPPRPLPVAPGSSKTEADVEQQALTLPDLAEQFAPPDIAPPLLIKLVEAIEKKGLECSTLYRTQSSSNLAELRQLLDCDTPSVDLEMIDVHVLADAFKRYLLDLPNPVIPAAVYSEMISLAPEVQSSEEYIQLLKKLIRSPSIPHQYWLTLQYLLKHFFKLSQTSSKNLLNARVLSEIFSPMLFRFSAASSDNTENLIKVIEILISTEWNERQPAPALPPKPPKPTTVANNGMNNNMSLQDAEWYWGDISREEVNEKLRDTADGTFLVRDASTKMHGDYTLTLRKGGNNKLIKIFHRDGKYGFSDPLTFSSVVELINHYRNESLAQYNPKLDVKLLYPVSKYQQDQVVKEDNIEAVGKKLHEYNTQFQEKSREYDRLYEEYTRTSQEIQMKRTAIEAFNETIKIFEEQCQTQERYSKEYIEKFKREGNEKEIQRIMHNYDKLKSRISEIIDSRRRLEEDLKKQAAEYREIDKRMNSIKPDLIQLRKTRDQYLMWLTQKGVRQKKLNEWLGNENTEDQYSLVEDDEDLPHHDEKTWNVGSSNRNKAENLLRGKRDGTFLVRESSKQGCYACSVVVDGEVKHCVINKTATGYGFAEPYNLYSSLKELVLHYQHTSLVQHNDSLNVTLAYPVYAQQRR
Sequence of PI3-kinase p110-alpha/p85-alpha (P42336 whole entry): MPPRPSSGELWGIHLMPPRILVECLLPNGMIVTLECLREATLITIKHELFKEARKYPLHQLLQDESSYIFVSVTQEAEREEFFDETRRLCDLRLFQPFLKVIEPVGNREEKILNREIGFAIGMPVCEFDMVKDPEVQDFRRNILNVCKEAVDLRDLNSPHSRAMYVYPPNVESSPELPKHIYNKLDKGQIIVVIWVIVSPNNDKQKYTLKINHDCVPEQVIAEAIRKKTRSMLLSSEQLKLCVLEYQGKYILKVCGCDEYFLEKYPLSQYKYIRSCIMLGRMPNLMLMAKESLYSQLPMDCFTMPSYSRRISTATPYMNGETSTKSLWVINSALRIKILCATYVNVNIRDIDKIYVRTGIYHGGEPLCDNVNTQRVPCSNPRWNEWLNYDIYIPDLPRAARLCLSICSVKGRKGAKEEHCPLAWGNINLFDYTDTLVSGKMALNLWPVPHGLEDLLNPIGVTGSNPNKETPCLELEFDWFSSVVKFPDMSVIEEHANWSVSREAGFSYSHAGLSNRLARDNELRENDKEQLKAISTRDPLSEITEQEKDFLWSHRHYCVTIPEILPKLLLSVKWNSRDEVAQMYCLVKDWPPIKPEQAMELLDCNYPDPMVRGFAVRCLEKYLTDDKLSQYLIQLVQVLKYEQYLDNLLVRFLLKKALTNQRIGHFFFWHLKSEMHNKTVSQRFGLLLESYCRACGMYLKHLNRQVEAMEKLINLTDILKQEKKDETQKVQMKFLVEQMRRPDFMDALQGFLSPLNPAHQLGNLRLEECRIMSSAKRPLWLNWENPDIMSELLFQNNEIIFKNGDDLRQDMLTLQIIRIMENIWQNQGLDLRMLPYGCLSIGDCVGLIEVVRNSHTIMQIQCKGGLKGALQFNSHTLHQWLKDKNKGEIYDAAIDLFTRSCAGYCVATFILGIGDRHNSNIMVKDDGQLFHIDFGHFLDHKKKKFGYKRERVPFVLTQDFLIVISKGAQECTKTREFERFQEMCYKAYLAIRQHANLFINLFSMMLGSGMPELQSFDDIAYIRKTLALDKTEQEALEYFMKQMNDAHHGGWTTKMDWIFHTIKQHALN

Mus musculus [10] = experiment: Antifibrotic activity in bleomycin-induced C57BL/6 mouse model of pulmonary fibrosis assessed as reduction in inspiratory capacity at 1 mg/kg, po administered once daily for 18 days starting from 10 days post-bleomycin challenge and measured post last dose; assay type: functional, organism-based
[11] = Volume of distribution at steady state in ICR mouse at 0.5 mg/kg, iv by LC-MS/SM analysis; assay type: ADME, organism-based; settings: in vivo, read-out: Vdss
Mus musculus [12] = experiment: Antifibrotic activity in bleomycin-induced C57BL/6 mouse model of pulmonary fibrosis assessed as reduction in lung index at 1 mg/kg, po administered once daily for 18 days starting from 10 days post-bleomycin challenge and measured post last dose; assay type: functional, organism-based
[13] = Toxicity in po dosed C57BL/6 mouse administered once daily via gavage for 7 days measured post-last dose; assay type: organism-based; settings: in vivo
Mus musculus [14] = organism: Mus musculus; experiment: Inhibition of class 1 PI3K in mouse Mlg2908 cells assessed as reduction in AKT phosphorylation at S473 residue measured after 3 hrs by Western blot analysis; assay type: cell-based
Mus musculus [15] = experiment: Antifibrotic activity in bleomycin-induced C57BL/6 mouse model of pulmonary fibrosis assessed as reduction in lung fibronectin level at 1 mg/kg, po administered once daily for 18 days starting from 10 days post-bleomycin challenge and measured post last dose by Western blot analysis; assay type: functional, organism-based
Mus musculus [16] = experiment: Antifibrotic activity in bleomycin-induced C57BL/6 mouse model of pulmonary fibrosis assessed as reduction in respiratory system compliance at 1 mg/kg, po administered once daily for 18 days starting from 10 days post-bleomycin challenge and measured post last dose; assay type: functional, organism-based
[17] = Oral bioavailability in ICR mouse at 5 mg/kg by LC-MS/SM analysis; assay type: ADME, organism-based; settings: in vivo
[18] = Toxicity in po dosed C57BL/6 mouse administered as single dose via gavage measured up to 7 days; assay type: organism-based; settings: in vivo
[19] = molecular target: T1, Phosphatidylinositol 4,5-bisphosphate 3-kinase catalytic subunit gamma isoform; experiment: Inhibition of recombinant human N-terminal His-tagged full-length p120gamma expressed in Sf9 insect cells using PIP2 as substrate by ADP-glo assay
Target sequence in this assay (P48736 whole entry, the tested form may be a part, canonical isoform): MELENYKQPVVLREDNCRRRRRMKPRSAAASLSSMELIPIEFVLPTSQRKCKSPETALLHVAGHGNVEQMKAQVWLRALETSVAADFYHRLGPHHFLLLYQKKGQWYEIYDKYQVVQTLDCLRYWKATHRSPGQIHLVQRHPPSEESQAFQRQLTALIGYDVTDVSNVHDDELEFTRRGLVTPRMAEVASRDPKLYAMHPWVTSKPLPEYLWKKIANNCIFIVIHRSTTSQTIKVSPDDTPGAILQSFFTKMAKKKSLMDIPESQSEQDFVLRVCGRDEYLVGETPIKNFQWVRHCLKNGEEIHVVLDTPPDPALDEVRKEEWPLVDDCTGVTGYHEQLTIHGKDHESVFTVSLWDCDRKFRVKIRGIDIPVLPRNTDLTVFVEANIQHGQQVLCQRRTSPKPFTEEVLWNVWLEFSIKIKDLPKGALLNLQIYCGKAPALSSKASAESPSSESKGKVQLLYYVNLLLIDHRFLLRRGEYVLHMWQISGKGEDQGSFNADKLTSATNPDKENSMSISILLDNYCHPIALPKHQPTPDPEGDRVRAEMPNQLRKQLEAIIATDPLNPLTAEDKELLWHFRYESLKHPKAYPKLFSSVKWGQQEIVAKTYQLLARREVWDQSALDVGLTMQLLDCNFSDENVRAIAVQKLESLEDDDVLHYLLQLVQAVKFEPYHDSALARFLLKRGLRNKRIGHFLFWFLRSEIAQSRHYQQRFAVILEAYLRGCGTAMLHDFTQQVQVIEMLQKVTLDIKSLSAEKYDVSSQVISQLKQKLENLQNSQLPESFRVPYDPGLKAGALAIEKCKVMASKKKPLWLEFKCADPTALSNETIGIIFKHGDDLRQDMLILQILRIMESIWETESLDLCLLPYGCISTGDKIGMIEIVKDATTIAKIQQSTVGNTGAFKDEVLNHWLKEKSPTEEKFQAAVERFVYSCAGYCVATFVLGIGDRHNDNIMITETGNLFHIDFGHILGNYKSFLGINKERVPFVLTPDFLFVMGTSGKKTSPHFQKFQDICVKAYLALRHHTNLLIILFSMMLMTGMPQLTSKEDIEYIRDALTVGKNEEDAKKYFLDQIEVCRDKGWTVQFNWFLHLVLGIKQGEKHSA

PI3K p110 beta/p85 alpha = PI3K p110 beta/p85 alpha (Homo sapiens, UniProt P42338); experiment: Inhibition of recombinant human N-terminal FLAG-tagged full-length p110beta/human p85alpha expressed in Sf9 insect cells using PIP2 as substrate by ADP-glo assay
Sequence of PI3K p110 beta/p85 alpha (P27986 whole entry): as the sequence (P27986 whole entry) above
Sequence of PI3K p110 beta/p85 alpha (P42338 whole entry): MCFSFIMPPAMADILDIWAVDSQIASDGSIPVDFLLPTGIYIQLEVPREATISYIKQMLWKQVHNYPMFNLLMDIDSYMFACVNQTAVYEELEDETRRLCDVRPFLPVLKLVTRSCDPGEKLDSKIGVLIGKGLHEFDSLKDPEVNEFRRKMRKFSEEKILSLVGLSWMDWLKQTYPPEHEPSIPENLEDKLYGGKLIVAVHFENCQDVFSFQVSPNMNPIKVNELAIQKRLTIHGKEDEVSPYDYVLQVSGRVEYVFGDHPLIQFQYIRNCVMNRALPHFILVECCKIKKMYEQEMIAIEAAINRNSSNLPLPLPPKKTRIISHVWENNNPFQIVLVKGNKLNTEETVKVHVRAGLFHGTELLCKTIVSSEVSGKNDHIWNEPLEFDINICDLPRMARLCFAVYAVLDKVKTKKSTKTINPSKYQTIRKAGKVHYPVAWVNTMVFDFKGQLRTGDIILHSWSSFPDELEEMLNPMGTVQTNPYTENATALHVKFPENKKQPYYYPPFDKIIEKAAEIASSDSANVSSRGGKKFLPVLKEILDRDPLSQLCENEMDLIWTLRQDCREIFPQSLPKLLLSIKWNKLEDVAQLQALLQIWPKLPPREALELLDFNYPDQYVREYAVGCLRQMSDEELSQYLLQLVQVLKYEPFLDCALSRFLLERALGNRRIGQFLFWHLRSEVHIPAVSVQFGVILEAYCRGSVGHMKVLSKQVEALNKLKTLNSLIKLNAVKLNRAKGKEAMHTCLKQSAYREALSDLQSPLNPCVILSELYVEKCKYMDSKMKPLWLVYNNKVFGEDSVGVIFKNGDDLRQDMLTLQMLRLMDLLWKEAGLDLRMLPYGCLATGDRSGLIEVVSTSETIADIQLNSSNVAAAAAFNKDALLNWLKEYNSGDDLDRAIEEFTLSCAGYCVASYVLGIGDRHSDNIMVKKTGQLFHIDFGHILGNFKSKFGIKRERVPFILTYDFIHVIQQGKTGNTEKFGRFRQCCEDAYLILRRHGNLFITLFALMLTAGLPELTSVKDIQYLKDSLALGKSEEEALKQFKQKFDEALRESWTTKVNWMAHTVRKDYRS

[20] = Apparent permeability across apical to basolateral side in human Caco2 cells measured after 90 mins by LC-MS/MS analysis; settings: Caco-2
[21] = Therapeutic index, ratio of MTD in po dosed C57BL/6 mouse to compound effect for antifibrotic activity in bleomycin-induced C57BL/6 mouse model of pulmonary fibrosis; assay type: toxicity, organism-based; settings: in vivo, read-out: TI
Mus musculus [22] = experiment: Antifibrotic activity in bleomycin-induced C57BL/6 mouse model of pulmonary fibrosis assessed as reduction in respiratory system resistance at 1 mg/kg, po administered once daily for 18 days starting from 10 days post-bleomycin challenge and measured post last dose; assay type: functional, organism-based
[23] = molecular target: Phosphatidylinositol 4,5-bisphosphate 3-kinase catalytic subunit alpha isoform (Homo sapiens) (UniProt P42336); experiment: Binding affinity to wild-type human partial length PIK3CA (R108 to N1068 residues) expressed in mammalian expression system assessed as residual binding level at 1 uM by kinomescan assay relative to control
Mus musculus [24] = experiment: Antifibrotic activity in bleomycin-induced C57BL/6 mouse model of pulmonary fibrosis assessed as reduction in lung hydroxyproline level at 1 mg/kg, po administered once daily for 18 days starting from 10 days post-bleomycin challenge and measured post last dose; assay type: functional, organism-based
Mus musculus [25] = organism: Mus musculus; experiment: Inhibition of class 1 PI3K in mouse Mlg2908 cells assessed as reduction in S6RP phosphorylation measured after 3 hrs by Western blot analysis; assay type: cell-based
Mus musculus [26] = organism: Mus musculus; experiment: Inhibition of class 1 PI3K in mouse Mlg2908 cells assessed as reduction in AKT phosphorylation at T308 residue measured after 3 hrs by Western blot analysis; assay type: cell-based
Mus musculus [27] = experiment: Antifibrotic activity in bleomycin-induced C57BL/6 mouse model of pulmonary fibrosis assessed as reduction in collagen fiber deposition at 1 mg/kg, po administered once daily for 18 days starting from 10 days post-bleomycin challenge and measured post last dose by Masson staining-based histopathological analysis; assay type: functional, organism-based
[28] = Dose normalized AUC in ICR mouse at 5 mg/kg, po by LC-MS/SM analysis; assay type: ADME, organism-based; settings: in vivo
[29] = molecular target: PI3-kinase p110-delta/p85-alpha (Homo sapiens, UniProt O00329); experiment: Inhibition of recombinant human N-terminal GST-tagged full-length p110delta/human p85alpha expressed in Sf9 insect cells using PIP2 as substrate by ADP-glo assay
Sequence of PI3-kinase p110-delta/p85-alpha (P27986 whole entry): as the sequence (P27986 whole entry) above
Sequence of PI3-kinase p110-delta/p85-alpha (O00329 whole entry): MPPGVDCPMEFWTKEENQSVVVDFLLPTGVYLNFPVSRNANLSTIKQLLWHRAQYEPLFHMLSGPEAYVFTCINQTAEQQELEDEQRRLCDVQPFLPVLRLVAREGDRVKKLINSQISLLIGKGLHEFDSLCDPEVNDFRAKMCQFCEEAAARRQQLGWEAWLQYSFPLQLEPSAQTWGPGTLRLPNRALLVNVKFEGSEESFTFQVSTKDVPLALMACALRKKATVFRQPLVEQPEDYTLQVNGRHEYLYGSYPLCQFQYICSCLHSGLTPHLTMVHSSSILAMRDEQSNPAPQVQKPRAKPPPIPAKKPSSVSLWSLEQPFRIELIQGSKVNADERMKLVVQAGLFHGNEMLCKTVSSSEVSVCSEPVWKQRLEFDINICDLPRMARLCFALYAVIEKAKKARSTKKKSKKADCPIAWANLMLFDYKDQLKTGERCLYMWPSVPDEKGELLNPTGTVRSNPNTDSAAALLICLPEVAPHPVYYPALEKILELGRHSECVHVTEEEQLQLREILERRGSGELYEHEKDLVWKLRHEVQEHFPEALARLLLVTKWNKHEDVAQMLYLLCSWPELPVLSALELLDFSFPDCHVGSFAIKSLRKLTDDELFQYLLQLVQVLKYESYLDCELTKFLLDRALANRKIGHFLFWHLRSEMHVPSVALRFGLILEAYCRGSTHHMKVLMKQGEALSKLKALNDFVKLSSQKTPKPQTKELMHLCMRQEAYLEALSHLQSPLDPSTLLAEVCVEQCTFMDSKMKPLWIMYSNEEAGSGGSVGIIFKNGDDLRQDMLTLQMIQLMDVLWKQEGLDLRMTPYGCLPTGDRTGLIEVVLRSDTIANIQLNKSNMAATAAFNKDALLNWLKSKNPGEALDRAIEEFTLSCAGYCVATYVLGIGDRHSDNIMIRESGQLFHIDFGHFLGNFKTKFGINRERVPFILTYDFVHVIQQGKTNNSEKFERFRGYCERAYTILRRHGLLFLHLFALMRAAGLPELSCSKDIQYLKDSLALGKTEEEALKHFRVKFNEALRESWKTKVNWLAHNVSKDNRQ

[30] = Half life in ICR mouse at 0.5 mg/kg, iv by LC-MS/SM analysis; assay type: ADME, organism-based; settings: in vivo
Mus musculus [31] = organism: Mus musculus; experiment: Inhibition of class 1 PI3K in mouse Mlg2908 cells assessed as reduction in p70S6K phosphorylation measured after 3 hrs by Western blot analysis; assay type: cell-based
Mus musculus [32] = experiment: Antifibrotic activity in bleomycin-induced C57BL/6 mouse model of pulmonary fibrosis assessed as reduction in lung damage at 1 mg/kg, po administered once daily for 18 days starting from 10 days post-bleomycin challenge and measured post last dose by H and E staining-based histopathological analysis; assay type: functional, organism-based
[33] = AUC (0 to infinity) in ICR mouse at 5 mg/kg, po by LC-MS/SM analysis; assay type: ADME, organism-based; parameters: dose 5 mg/kg, route oral, time infinity; settings: in vivo
[34] = Cmax in ICR mouse at 5 mg/kg, po by LC-MS/SM analysis; assay type: ADME, organism-based; parameters: dose 5 mg/kg, route oral; settings: in vivo
[35] = AUC (0 to infinity) in ICR mouse at 0.5 mg/kg, iv by LC-MS/SM analysis; assay type: ADME, organism-based; parameters: dose 0.5 mg/kg, time infinity, route intravenous; settings: in vivo
[36] = simulated gi fluid, pH 6.5, 1 h
Description: Thermodynamic solubility of the compound in pH 6.5 FaSSIF incubated for 1 hr by LC-MS/MS analysis

[37] = buffer, pH 7.4, 1 h
Description: Thermodynamic solubility of the compound in pH 7.4 PBS incubated for 1 hr by LC-MS/MS analysis

[38] = Kinetic solubility of the compound in pH 7.4 incubated for 120 mins by HPLC-MS/MS analysis; settings: buffer, pH 7.4, 2 h

Structure (SMILES)	clearance [1] [mL/min/kg]	Papp B→A at 1.5 h [4] [×10⁻⁶ cm/s]	IC50 [5] [pM]	half-life [8] [h]	IC50 [9] [pM]	Vd [11] [L/kg]	inhibition (Mus musculus [14])	bioavailability [17] [%]	IC50 [19] [pM]	IC50 (PI3K p110 beta/p85 alpha) [pM]	Papp A→B at 1.5 h [20] [×10⁻⁶ cm/s]	inhibition (Mus musculus [25])	inhibition (Mus musculus [26])	IC50 [29] [pM]	half-life [30] [h]	inhibition (Mus musculus [31])	AUC(0-inf) [33] [ng·h/mL]	Cmax [34] [ng/mL]	AUC(0-inf) [35] [ng·h/mL]	other results
COc1ncc(-c2cc(OCC3(C)COC3)c3ncnc(C)c3c2)cc1NS(=O)(=O)c1ccc(F)cc1F	12.8	36	5000	4.98	870	0.733	Dose-dependent effect	53.1	1600	700	46	Dose-dependent effect	Dose-dependent effect	1100	0.66	Dose-dependent effect	3670	1220	651	Activity (Mus musculus [2]): Active; Activity [3]: 0%; Activity (Mus musculus [6]): Active; Activity [7]: 0%; Activity (Mus musculus [10]): Active; Activity (Mus musculus [12]): Active; MTD at 168 h [13]: > 10 mg/kg; Activity (Mus musculus [15]): Active; Activity (Mus musculus [16]): Active; MTD at 168 h [18]: > 30 mg/kg; selectivity ratio [21]: > 10; Activity (Mus musculus [22]): Active; Activity [23]: 0%; Activity (Mus musculus [24]): Active; Activity (Mus musculus [27]): Active; AUC/dose [28]: 734 ng·h/mL per mg/kg; Activity (Mus musculus [32]): Active
COc1ncc(-c2cc(OC3CCOCC3)c3ncnc(C)c3c2)cc1NS(=O)(=O)c1ccc(F)cc1F	4.58	39	3000	5.57	600	0.368	Dose-dependent effect	15.8	2100	540	42	Dose-dependent effect	Dose-dependent effect	520	0.92	Dose-dependent effect	3240	1210	1820	Therm_solubility [36]: Soluble; Therm_solubility [37]: Soluble; Kinetic_solubility [38]: Soluble
